This is an account of results in US8927559B2, “Quinazolinone-type compounds as CRTH2 antagonists” (Merck Sharp & Dohme Corp., priority 2010, dated 2015).

In one assay the target is T1, CRTH2 receptor (hCRTH2) (Homo sapiens, UniProt Q9Y5Y4).
T1 construct: expressed in transfected cells; host or cells: HEK cells (HEK-hCRTH2 cell line), membranes
T1 sequence (Q9Y5Y4 1-395): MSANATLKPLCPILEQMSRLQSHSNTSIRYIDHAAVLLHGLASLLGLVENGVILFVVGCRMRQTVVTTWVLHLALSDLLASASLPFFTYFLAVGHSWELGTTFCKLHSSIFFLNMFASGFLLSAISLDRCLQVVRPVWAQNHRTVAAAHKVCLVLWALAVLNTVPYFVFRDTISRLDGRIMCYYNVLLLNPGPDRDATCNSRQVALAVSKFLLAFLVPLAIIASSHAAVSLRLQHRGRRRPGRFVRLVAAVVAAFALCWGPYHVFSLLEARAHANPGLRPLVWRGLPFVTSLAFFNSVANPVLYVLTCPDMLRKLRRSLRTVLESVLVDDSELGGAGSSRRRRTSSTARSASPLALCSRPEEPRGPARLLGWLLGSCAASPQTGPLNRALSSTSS
Kind of assay: Radioligand binding assay ([3H]PGD2 competition, membranes of HEK-hCRTH2 cell line). The settings on record: 3.0 nM [3H]PGD2, HEK-hCRTH2 membranes, 60 min, room temperature; read-out: Ki. Summed up: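 Membranes (8-20 μg protein) from HEK cells expressing human CRTH2 were incubated with [3H]PGD2 and competitor in 1% DMSO for 60 min at room temperature. Non-specific binding was defined with excess PGD2. Bound radioactivity was separated by filtration and counted by melt-on scintillation.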
With `O=C(O)CCCCc1nc2cc(-c3cc(CN4CCc5ccccc54)on3)ccc2c(=O)n1-c1ccc(F)cc1` [Example 106], the inhibitory constant (Ki) is at most 10 nM.
On to `O=C(O)CCCCc1nc2cc(-c3cc(Cn4ccccc4=O)on3)ccc2c(=O)n1-c1ccc(F)cc1` [Example 107], for which the Ki is at most 10 nM.
On the same count and under the same terms, the result for `CC(CCCc1nc2cc(C3=NOC(C)(c4nc5ccccc5o4)C3)ccc2c(=O)n1-c1ccc(F)cc1)C(=O)O` (centres unmarked) [Example 108] reads at most 10 nM.
Same read-out and setting: the result for `CC(CCCc1nc2cc(C3=NOC(C)([C@H](O)c4ccccc4)C3)ccc2c(=O)n1-c1ccc(F)cc1)C(=O)O` (some centres unmarked) [Example 109] reads 10 to 50 nM; that for `CC(CCCc1nc2cc(C3=NOC(C)([C@@H](O)c4ccccc4)C3)ccc2c(=O)n1-c1ccc(F)cc1)C(=O)O` (some centres unmarked) [Example 110], 10 to 50 nM.
Same read-out and setting: the result for `O=C(O)CCCCc1nc2cc(-c3cc(Cn4nnc5ccccc54)on3)ccc2c(=O)n1-c1ccc(F)cc1` [Example 111] reads at most 10 nM.
For the molecule `N#CC1CC2(CC(c3ccc4c(=O)n(-c5ccc(F)cc5)c(CCCCC(=O)O)nc4c3)=NO2)C1` (centres unmarked) [Example 112], the Ki is at most 10 nM.
On to `CC1(c2ccc(C#N)cc2)CC(c2ccc3c(=O)n(-c4ccc(Cl)cc4)c(CCCCC(=O)O)nc3c2)=NO1` (centres unmarked) [Example 113], for which the Ki is at most 10 nM.
The same measure, in the same setting: the result for `CC1(c2ccc(C#N)cc2)CC(c2ccc3c(=O)n(-c4ccc(F)cc4)c(CCCCC(=O)O)nc3c2)=NO1` (centres unmarked) [Example 114] reads at most 10 nM.
The same measure, in the same setting: the result for `CC1(c2nc3ccccc3o2)CC(c2ccc3c(=O)n(-c4ccc(Cl)cc4)c(CCCCC(=O)O)nc3c2)=NO1` (centres unmarked) [Example 116] reads at most 10 nM; that for `CC1(c2ccc(F)c(F)c2)CC(c2ccc3c(=O)n(-c4ccc(F)cc4)c(CCCCC(=O)O)nc3c2)=NO1` (centres unmarked) [Example 124], at most 10 nM; that for `O=C(O)CCCCc1nc2cc(C3=NOC(c4ccccc4)(C(F)(F)F)C3)ccc2c(=O)n1-c1ccc(F)cc1` (centres unmarked) [Example 127], 10 to 50 nM.
For `C=C(c1ccccc1)c1cc(-c2ccc3c(=O)n(-c4ccc(F)cc4)c(CCCCC(=O)O)nc3c2)no1` [Example 128], the inhibitory constant (Ki) was at most 10 nM.
Turning to `CC(O)(c1cc(-c2ccc3c(=O)n(-c4ccc(F)cc4)c(CCCCC(=O)O)nc3c2)no1)c1ccccc1F` (centres unmarked) [Example 129], the Ki was at most 10 nM.
With `CC(O)(c1cccc(F)c1)c1cc(-c2ccc3c(=O)n(-c4ccc(F)cc4)c(CCCCC(=O)O)nc3c2)no1` (centres unmarked) [Example 130], the inhibition constant Ki was at most 10 nM.
Regarding `O=C(O)CCCCc1nc2cc(-c3cc(C(O)(c4ccccc4)C(F)(F)F)on3)ccc2c(=O)n1-c1ccc(F)cc1` (centres unmarked) [Example 131], the inhibitory constant (Ki) lay in the range of 10 to 50 nM.
Still for that read-out and setting: to `CC1(C(O)c2ccc(C#N)cc2)CC(c2ccc3c(=O)n(-c4ccc(F)cc4)c(CCCCC(=O)O)nc3c2)=NO1` (centres unmarked) [Example 132] belongs 10 to 50 nM; to `CC(c1ccccc1)c1cc(-c2ccc3c(=O)n(-c4ccc(F)cc4)c(CCCCC(=O)O)nc3c2)no1` (centres unmarked) [Example 133], at most 10 nM.
Still for that read-out and setting: to `C[C@@]1([C@H](O)c2cccc(C#N)c2)CC(c2ccc3c(=O)n(-c4ccc(F)cc4)c(CCCCC(=O)O)nc3c2)=NO1` [Example 136] belongs at most 10 nM.
As to `C[C@@]1([C@@H](O)c2cccc(C#N)c2)CC(c2ccc3c(=O)n(-c4ccc(F)cc4)c(CCCCC(=O)O)nc3c2)=NO1` [Example 137], the Ki was at most 10 nM.
Same read-out and setting: to `C[C@]1([C@H](O)c2cccc(C#N)c2)CC(c2ccc3c(=O)n(-c4ccc(F)cc4)c(CCCCC(=O)O)nc3c2)=NO1` [Example 138] belongs 10 to 50 nM; to `O=C(O)CCCCc1nc2cc(C3=NOC4(CCc5ccccc54)C3)ccc2c(=O)n1-c1ccc(F)cc1` (centres unmarked) [Example 143], 10 to 50 nM.
Still for that read-out and setting: to `O=C(O)CCCCc1nc2cc(C3=NOC4(CCc5c(F)cccc54)C3)ccc2c(=O)n1-c1ccc(F)cc1` (centres unmarked) [Example 144] belongs 10 to 50 nM; to `O=C(O)CCCCc1nc2cc(C3=NOC4(C3)Cc3ccccc3C4)ccc2c(=O)n1-c1ccc(F)cc1` [Example 145], at most 10 nM.
On the same count and under the same terms, the result for `CO[C@@H](c1ccccc1)c1cc(-c2ccc3c(=O)n(-c4ccc(F)cc4)c(C(C)CCCC(=O)O)nc3c2)no1` (some centres unmarked) [Example 146] reads 10 to 50 nM; that for `CO[C@@H](c1ccccc1)c1cc(-c2ccc3c(=O)n(-c4ccc(F)cc4)c(CCCCC(=O)O)nc3c2)no1` [Example 147], at most 10 nM.
In the case of `CO[C@H](c1ccccc1)c1cc(-c2ccc3c(=O)n(-c4ccc(F)cc4)c(C(C)CCCC(=O)O)nc3c2)no1` (some centres unmarked) [Example 148], the Ki is at most 10 nM.
On the same count and under the same terms, to `CO[C@H](c1ccccc1)c1cc(-c2ccc3c(=O)n(-c4ccc(F)cc4)c(CCCCC(=O)O)nc3c2)no1` [Example 149] belongs at most 10 nM.
Turning to `O=C(O)CCCCc1nc2cc(C3=NOC(c4nc5ccc(Cl)cc5o4)C3)ccc2c(=O)n1-c1ccc(F)cc1` (centres unmarked) [Example 150], the inhibition constant Ki is at most 10 nM.
Consider `O=C(O)CCCCc1nc2cc(C3=NOC(c4nc5ccc(Cl)cc5s4)C3)ccc2c(=O)n1-c1ccc(F)cc1` (centres unmarked) [Example 151], for which the Ki was at most 10 nM.
On the same count and under the same terms, to `O=C(O)CCCCc1nc2cc(C3=NO[C@H](c4nc5ccc(Cl)cc5o4)C3)ccc2c(=O)n1-c1ccc(F)cc1` [Example 152] belongs 10 to 50 nM; to `O=C(O)CCCCc1nc2cc(C3=NO[C@@H](c4nc5ccc(Cl)cc5o4)C3)ccc2c(=O)n1-c1ccc(F)cc1` [Example 153], at most 10 nM; to `O=C(O)CCCCc1nc2cc(C3=NO[C@H](c4nc5ccc(Cl)cc5s4)C3)ccc2c(=O)n1-c1ccc(F)cc1` [Example 154], at most 10 nM.
Same read-out and setting: the result for `O=C(O)CCCCc1nc2cc(C3=NO[C@@H](c4nc5ccc(Cl)cc5s4)C3)ccc2c(=O)n1-c1ccc(F)cc1` [Example 155] reads at most 10 nM.
In the case of `O=C(O)C1CC(Cc2nc3cc(-c4cc(Cc5ccc(F)cc5)on4)ccc3c(=O)n2-c2ccc(F)cc2)C1` (centres unmarked) [Example 156], the inhibition constant Ki was in the range of 10 to 50 nM.
As to `O=C(O)CCCCc1nc2cc(-c3cc(-c4ccc(Br)cc4)on3)ccc2c(=O)n1-c1ccc(F)cc1` [Example 157], the Ki fell in the range of 10 to 50 nM.
On the same count and under the same terms, the result for `CC1(c2nc3ccc(Cl)cc3o2)CC(c2ccc3c(=O)n(-c4ccc(F)cc4)c(CCCCC(=O)O)nc3c2)=NO1` (centres unmarked) [Example 158] reads at most 10 nM.

Staying with this assay, now noted: Ki, 3.0 nM [3H]PGD2, HEK-hCRTH2 membranes, 60 min, room temperature.
As to `O=C(O)CCCCc1nc2cc(C3=NOC(c4ccccc4)(c4ccccc4)C3)ccc2c(=O)n1-c1ccc(F)cc1` [Example 117], the inhibition constant Ki was in the range of 10 to 50 nM.
Same read-out and setting: to `CC1(c2cccc(C#N)c2)CC(c2ccc3c(=O)n(-c4ccc(F)cc4)c(CCCCC(=O)O)nc3c2)=NO1` (centres unmarked) [Example 118] belongs 10 to 50 nM; to `CC1(c2cccc(C#N)c2)CC(c2ccc3c(=O)n(-c4ccc(F)cc4)c(CCCCC(=O)O)nc3c2)=NO1` (centres unmarked) [Example 119], at most 10 nM; to `CC1(c2ccc(Cl)cc2)CC(c2ccc3c(=O)n(-c4ccc(F)cc4)c(CCCCC(=O)O)nc3c2)=NO1` (centres unmarked) [Example 120], at most 10 nM.
For the molecule `CC1(c2ccc(F)cc2)CC(c2ccc3c(=O)n(-c4ccc(F)cc4)c(CCCCC(=O)O)nc3c2)=NO1` (centres unmarked) [Example 122], the inhibition constant (Ki) is at most 10 nM.
In turn, `CC1(c2cc(F)cc(F)c2)CC(c2ccc3c(=O)n(-c4ccc(F)cc4)c(CCCCC(=O)O)nc3c2)=NO1` (centres unmarked) [Example 125] gave a Ki of at most 10 nM.
With `CC1(c2cc(F)cc(F)c2)CC(c2ccc3c(=O)n(-c4ccc(F)cc4)c(CCCCC(=O)O)nc3c2)=NO1` (centres unmarked) [Example 126], the inhibitory constant (Ki) lay within 10 to 50 nM.

Broadly, the Ki is a measure of affinity in units of concentration, obtained from inhibition or displacement.
